Experimental data: the NIST ThermoML archive (doi:10.1021/je060204g)
Numbers after ± are expanded uncertainties.

Settings: 101 kPa, Liquid mixture 1, Drop weight

Cc1ccccc1 [toluene] + O
Settings | interfacial tension [mN/m]
293.15 K | 37.1 ± 0.5
298.15 K | 36.1 ± 0.5
303.15 K | 35.5 ± 0.5
308.15 K | 35.1 ± 0.4
313.15 K | 34.7 ± 0.4
323.15 K | 34.3 ± 0.4
